The record followed here is ChEMBL document CHEMBL6134853, “Design, Synthesis, and Biological Evaluation of Pyrrolo[1,2-a]quinoxalin-4(5H)-one Derivatives as Potent and Orally Available Noncovalent Bruton's Tyrosine Kinase (BTK) Inhibitors” (J Med Chem, 2025).

By MRT last is commonly meant a mean duration of stay, worked out from the concentration-time curve. In general, IC50 refers to the concentration at which inhibition is half-maximal. By AUC(0-t) is commonly meant the area under the concentration-time curve up to a stated or last time point. A high value points to high exposure.

Series [1] is described as follows: Toxicity in BALB/c mouse xenografted with human U-937 cells assessed as parenchymal injury in spleen at 50 to 100 mg/kg, po administered once a day for 14 days by H and E staining based analysis. The note with it: in vivo, 336 h, dose 50-100 mg/kg, time 14 day. The class given is organism-based. On the technique in general: A xenograft is tissue or cells of one species grown in another, often human tumour cells in immunodeficient mice.

A short description of series [2]: Toxicity in BALB/c mouse xenografted with human U-937 cells assessed as parenchymal injury in kidney at 50 to 100 mg/kg, po administered once a day for 14 days by H and E staining based analysis. The class given is organism-based. The note with it: in vivo, 336 h, dose 50-100 mg/kg, time 14 day.
A short description of series [3]: MRT (0 to 5 hrs) in male Sprague-Dawley rat at 10 mg/kg, po measured up to 5 hrs by LC-MS/MS analysis. It counts as ADME, organism-based. The note with it: in vivo.
Series [4] is described as follows: Toxicity in BALB/c mouse xenografted with human U-937 cells assessed as parenchymal injury in liver at 50 to 100 mg/kg, po administered once a day for 14 days by H and E staining based analysis. The class given is organism-based. The note with it: in vivo, 336 h, dose 50-100 mg/kg, time 14 day.
For another series, the system named is Ramos. Kind of series: Antiproliferative activity against human Ramos cells expressing BTK assessed as inhibition of cell proliferation incubated for 48 hrs by CCK-8 assay. The class given is functional, cell-based.
A short description of series [5]: AUC (0 to t) in male Sprague-Dawley rat at 10 mg/kg, po measured up to 24 hrs by LC-MS/MS analysis. The class given is ADME, organism-based. The note with it: in vivo.
Series [6] addresses T1, Tyrosine-protein kinase Tec (Homo sapiens) (UniProt P42680).
T1 sequence (whole entry): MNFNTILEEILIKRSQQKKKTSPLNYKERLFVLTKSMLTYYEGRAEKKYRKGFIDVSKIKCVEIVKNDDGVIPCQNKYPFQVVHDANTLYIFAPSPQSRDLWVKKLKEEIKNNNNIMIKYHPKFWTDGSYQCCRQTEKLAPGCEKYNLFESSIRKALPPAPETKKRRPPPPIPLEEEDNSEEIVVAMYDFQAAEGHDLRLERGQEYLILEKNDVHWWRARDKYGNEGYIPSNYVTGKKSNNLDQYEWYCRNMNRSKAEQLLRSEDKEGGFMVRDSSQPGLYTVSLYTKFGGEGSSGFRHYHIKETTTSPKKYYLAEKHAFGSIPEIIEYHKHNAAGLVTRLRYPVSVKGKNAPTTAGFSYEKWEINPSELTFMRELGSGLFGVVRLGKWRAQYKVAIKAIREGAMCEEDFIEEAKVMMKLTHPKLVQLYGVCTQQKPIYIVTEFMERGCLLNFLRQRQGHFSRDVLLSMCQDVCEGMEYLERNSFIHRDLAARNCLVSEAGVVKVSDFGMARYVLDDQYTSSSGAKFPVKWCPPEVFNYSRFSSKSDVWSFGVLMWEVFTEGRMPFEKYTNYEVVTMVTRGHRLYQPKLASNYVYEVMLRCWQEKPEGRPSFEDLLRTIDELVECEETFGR
Kind of series: Inhibition of TEC (unknown origin) at 100 nM relative to control.

For series [7], the system named is U-937. Kind of series: Antitumor activity against human U-937 cells xenografted in po dosed BALB/c mouse assessed as tumor growth inhibition administered once a day for 14 days. The class given is functional, organism-based. Conditions: dose 50-100 mg/kg, time 14.0 day.
The target of series [8] is T2, Tyrosine-protein kinase BTK (Homo sapiens, UniProt Q06187). Kind of series: Inhibition of BTK (unknown origin) by HTRF analysis. For orientation: In TR-FRET formats the signal depends on donor and acceptor labels being close together.
Series [9] in a line: Toxicity in BALB/c mouse xenografted with human U-937 cells assessed as inflammatory infiltration in kidney at 50 to 100 mg/kg, po administered once a day for 14 days by H and E staining based analysis. Conditions: in vivo, 336 h, dose 50-100 mg/kg, time 14 day. It counts as organism-based.
Series [10] relates to U-937. Kind of series: Antiproliferative activity against human U-937 cells expressing BTK assessed as inhibition of cell proliferation incubated for 48 hrs by CCK-8 assay. The class given is functional, cell-based. Conditions: U-937, 48 h.
Series [11] can be described thus: Toxicity in BALB/c mouse xenografted with human U-937 cells assessed as inflammatory infiltration in heart at 50 to 100 mg/kg, po administered once a day for 14 days by H and E staining based analysis. The class given is organism-based. Conditions: in vivo, 336 h, dose 50-100 mg/kg, time 14 day.
Series [12] deals with U-937. Kind of series: Induction of cell cycle arrest in human U-937 cells assessed as accumulation of cells at S-phase incubated for 2 days by PI staining based flow cytometry analysis. The note with it: dose 1-10 µM, time 2.0 day. It counts as functional. For orientation: A flow cytometer gives signals particle by particle.
The subject of series [13] is U-937. Kind of series: Antitumor activity against human U-937 cells xenografted in BALB/c mouse assessed as tumor growth inhibition at 50 mg/kg, po administered once a day for 14 days. Conditions: U-937, 336 h, time 14 day, read-out: TGI. The class given is functional.
The test system of series [14] is U-937. Kind of series: Antitumor activity against human U-937 cells xenografted in BALB/c mouse assessed as reduction in Ki67 expression in tumor at 50 mg/kg, po administered once a day for 14 days by immunohistochemical analysis. The class given is functional, organism-based. The note with it: time 14.0 day.
A short description of series [15]: Toxicity in BALB/c mouse xenografted with human U-937 cells assessed as inflammatory infiltration in lung at 50 to 100 mg/kg, po administered once a day for 14 days by H and E staining based analysis. It counts as organism-based. The note with it: in vivo, 336 h, dose 50-100 mg/kg, time 14 day.
Series [16] can be described thus: Toxicity in BALB/c mouse xenografted with human U-937 cells assessed as inflammatory infiltration in liver at 50 to 100 mg/kg, po administered once a day for 14 days by H and E staining based analysis. The class given is organism-based. Conditions: in vivo, 336 h, dose 50-100 mg/kg, time 14 day.
Series [17] in a line: Toxicity in BALB/c mouse xenografted with human U-937 cells assessed as parenchymal injury in heart at 50 to 100 mg/kg, po administered once a day for 14 days by H and E staining based analysis. The class given is organism-based. The note with it: in vivo, 336 h, dose 50-100 mg/kg, time 14 day.
Series [18] is described as follows: AUC (0 to 5 hrs) in male Sprague-Dawley rat at 10 mg/kg, po measured up to 5 hrs by LC-MS/MS analysis. It counts as ADME, organism-based. Conditions: in vivo.
Series [19] has as its target T2, Tyrosine-protein kinase BTK. Kind of series: Inhibition of BTK phosphorylation at Y223 residue in anti-IgM induced human Ramos cells preincubated with compound for 4 hrs followed by anti-IgM induction and measured after 15 mins by Western blot analysis. The class given is cell-based. Conditions: dose <= 1.0 µM, time 255.0 min.
The nature of series [20]: Toxicity in BALB/c mouse xenografted with human U-937 cells assessed as change in body weight at 50 to 100 mg/kg, po administered once a day for 14 days. It counts as organism-based. Conditions: in vivo, 336 h, dose 50-100 mg/kg, time 14 day.
Series [21] concerns U-937. Kind of series: Antitumor activity against human U-937 cells xenografted in BALB/c mouse assessed as tumor growth inhibition at 100 mg/kg, po administered once a day for 14 days. It counts as functional. Conditions: U-937, 336 h, time 14 day, read-out: TGI.
Series [22] is described as follows: Toxicity in BALB/c mouse xenografted with human U-937 cells assessed as inflammatory infiltration in spleen at 50 to 100 mg/kg, po administered once a day for 14 days by H and E staining based analysis. The class given is organism-based. Conditions: in vivo, 336 h, dose 50-100 mg/kg, time 14 day.

Active and inactive are the calls of the source. The calls are words filed in the database; no cut-off is given here.

T2 sequence (Q06187 whole entry): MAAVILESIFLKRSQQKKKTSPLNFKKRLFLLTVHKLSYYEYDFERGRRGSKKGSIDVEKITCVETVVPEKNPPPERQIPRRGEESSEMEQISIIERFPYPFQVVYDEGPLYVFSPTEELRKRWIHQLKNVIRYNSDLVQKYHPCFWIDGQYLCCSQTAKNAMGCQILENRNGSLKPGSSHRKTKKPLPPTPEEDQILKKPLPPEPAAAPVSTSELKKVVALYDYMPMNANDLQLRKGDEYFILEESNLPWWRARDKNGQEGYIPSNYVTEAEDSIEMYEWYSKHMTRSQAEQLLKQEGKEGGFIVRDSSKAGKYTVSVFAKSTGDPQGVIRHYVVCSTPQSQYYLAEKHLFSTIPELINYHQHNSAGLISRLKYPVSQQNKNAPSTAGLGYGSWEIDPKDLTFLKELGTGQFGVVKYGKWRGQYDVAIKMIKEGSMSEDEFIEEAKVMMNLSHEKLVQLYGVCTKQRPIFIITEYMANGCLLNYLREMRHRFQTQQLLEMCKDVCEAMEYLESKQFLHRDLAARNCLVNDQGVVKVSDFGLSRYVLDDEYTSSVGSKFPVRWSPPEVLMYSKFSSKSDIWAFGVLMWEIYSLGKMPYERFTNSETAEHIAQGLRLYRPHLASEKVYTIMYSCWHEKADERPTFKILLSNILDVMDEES

As for `CC(C)(O)c1ccc2c(c1)[nH]c(=O)c1ccc(-c3cccc(-n4c(=O)[nH]c5c(F)cccc5c4=O)c3F)n12`, the Activity result in series [1] was “Non-toxic”; in [2], “Non-toxic”; in series [4], “Non-toxic”; in the series with U-937 [7], “Dose-dependent-effect”; in series [9] it was “Non-toxic”; in series [11], “Non-toxic”. Also, the Activity entry with U-937 [12] was “Dose-dependent-effect”; in series [15] it was “Non-toxic”; in [16] it was “Non-toxic”; in series [17], “Non-toxic”; in series [20] it was “Non-toxic”; in series [22], “Non-toxic”. The compound also registered a mean residence time (MRT last) at 5 h in [3] of 1.48 h. In addition, the IC50 in the series on Ramos was 8 µM; in [8] it was 21.6 nM; with U-937 [10] it was 7.9 µM. This compound returned an exposure AUC(0-t) at 24 h in [5] of 161 ng·h/mL. Moreover, in [6], the inhibition result was “Active”. Moreover, in the series with U-937 [13], the inhibition in vivo at 50 mg/kg amounted to 64.4%. Further, the result with U-937 [14] was Active. Besides, the AUC(0-t) at 5 h in series [18] amounted to 116 ng·h/mL. In addition, the inhibition result in [19] was “Dose-dependent-effect”. The inhibition in vivo at 100 mg/kg in the series with U-937 [21] came to 74.9%.
